Measured values taken from article PMC11480511 (Scientific Reports, 2024).
≈ marks a conversion by molar mass, not a printed value. Read-outs that look alike come from different tables or passages of the source.

Key:
HS 578T = test: NCI single-dose growth inhibition screen; format: cell-based; details: Homo sapiens; Breast Cancer HS 578T; single dose 10^−5 M
OVCAR-8 = test: NCI single-dose growth inhibition screen; format: cell-based; details: Homo sapiens; Ovarian Cancer OVCAR-8; single dose 10^−5 M
NCI-H322M = test: NCI single-dose growth inhibition screen; format: cell-based; details: Homo sapiens; Non-Small Cell Lung Cancer NCI-H322M; single dose 10^−5 M
NCI-H460 = test: NCI single-dose growth inhibition screen; format: cell-based; details: Homo sapiens; Non-Small Cell Lung Cancer NCI-H460; single dose 10^−5 M
EKVX = test: NCI single-dose growth inhibition screen; format: cell-based; details: Homo sapiens; Non-Small Cell Lung Cancer EKVX; single dose 10^−5 M
CAKI-1 = test: NCI single-dose growth inhibition screen; format: cell-based; details: Homo sapiens; Renal Cancer CAKI-1; single dose 10^−5 M
A549/ATCC = test: NCI single-dose growth inhibition screen; format: cell-based; details: Homo sapiens; Non-Small Cell Lung Cancer A549/ATCC; single dose 10^−5 M
DU-145 = test: NCI single-dose growth inhibition screen; format: cell-based; details: Homo sapiens; Prostate Cancer DU-145; single dose 10^−5 M
LOX IMVI = test: NCI single-dose growth inhibition screen; format: cell-based, human; details: Homo sapiens, LOX IMVI, Melanoma LOX IMVI; single dose 10^−5 M
PC-3 = test: NCI single-dose growth inhibition screen; format: cell-based; details: Homo sapiens; Prostate Cancer PC-3; single dose 10^−5 M
UACC-257 = test: NCI single-dose growth inhibition screen; format: cell-based; details: Homo sapiens; Melanoma UACC-257; single dose 10^−5 M
E. coli ATCC 25,922 = test: Antibacterial screening, agar cup diffusion method; format: cell-based; details: read-out: Minimum inhibitory concentrations (MIC, µM) E. coli ATCC 25,922
Experimental: (§1) Anti-bacterial activity of the recently synthesized compounds 3a-k was evaluated at AUMC (Assiut University Mycological Centre), Assiut, Egypt. Assays were done against Gram-negative strains of K. pneumoniae (ATCC 100310, E. coli (ATCC 25922), Pseudomonas aeruginosa (ATCC 27853) and the Gram-positive S. aureus (ATCC 6538) strain utilizing standard agar cup diffusion method. The isolates from the four bacterial species examined were kept in TSB (Trypticase Soya Broth, Becton and Dickinson) with 10% glycerol at -70 °C and then subcultured on TSA (Trypticase Soya Agar, Becton and Dickinson) and TSB for 24 h at 37 °C former to inoculation. Bacterial isolates were then plated on sterile petri plates with 1 × 10^8 CFU/mL (0.5 McFarland turbidity) and 20 mL of Mueller Hinton Agar media (Oxoid) was then loaded. To ensure that the microorganisms were evenly dispersed, the plates were gently rotated before being left to harden on a level surface. Four equally spaced spherical-shaped wells (10 mm diameter) were painstakingly drilled using a sterilized cork bore after media solidification. All tested compounds under test underwent two-fold serial dilutions in a sequential manner. Three replications of 100 µL of each concentration were added to a well using a micropipette. Plates were then incubated for 24-hour at 37 °C. The average of the inhibition zones was then calculated. To determine the MICs, the natural logarithm of each diluted test substance’s concentration was plotted against the average area of the related inhibition zone. Following that, a regression line was created and the intercept on the ‘ln concentration” axis was determined, and the antilogarithm was calculated to indicate the MIC value[34],[63].

SR = test: NCI single-dose growth inhibition screen; format: cell-based; details: Homo sapiens; Leukemia SR; single dose 10^−5 M
NCI-H23 = test: NCI single-dose growth inhibition screen; format: cell-based; details: Homo sapiens; Non-Small Cell Lung Cancer NCI-H23; single dose 10^−5 M
ACHN = test: NCI single-dose growth inhibition screen; format: cell-based; details: Homo sapiens; Renal Cancer ACHN; single dose 10^−5 M
S. aureus ATCC 6538 = test: Antibacterial screening, agar cup diffusion method; format: cell-based; details: Staphylococcus aureus, ATCC6538; Gram + ve strain; read-out: Minimum inhibitory concentrations (MIC, µM) S. aureus ATCC 6538
Experimental: as §1

MDA-MB231 = test: NCI single-dose growth inhibition screen; format: cell-based; details: Homo sapiens, MDA-MB-231; Breast Cancer MDA-MB231; single dose 10^−5 M
RPMI-8226 = test: NCI single-dose growth inhibition screen; format: cell-based; details: Homo sapiens; Leukemia RPMI-8226; single dose 10^−5 M
786-0 = test: NCI single-dose growth inhibition screen; format: cell-based; details: Homo sapiens; Renal Cancer 786-0; single dose 10^−5 M
SN12C = test: NCI single-dose growth inhibition screen; format: cell-based; details: Homo sapiens; Renal Cancer SN12C; single dose 10^−5 M
MOLT-4 = test: NCI single-dose growth inhibition screen; format: cell-based; details: Homo sapiens; Leukemia MOLT-4; single dose 10^−5 M
OVCAR-4 = test: NCI single-dose growth inhibition screen; format: cell-based; details: Homo sapiens; Ovarian Cancer OVCAR-4; single dose 10^−5 M
CCRF-CEM = test: NCI single-dose growth inhibition screen; format: cell-based; details: Homo sapiens; Leukemia CCRF-CEM; single dose 10^−5 M
A498 = test: NCI single-dose growth inhibition screen; format: cell-based, human; details: Homo sapiens, A498, Renal Cancer A498; single dose 10^−5 M
[1] = tested on: P. aeruginosa ATCC 27,853; test: Antibacterial screening, agar cup diffusion method; format: cell-based; details: Pseudomonas aeruginosa, ATCC27; Gram –ve strain; read-out: Minimum inhibitory concentrations (MIC, µM) P. aeruginosa ATCC 27,853
Experimental: as §1

HOP-62 = test: NCI single-dose growth inhibition screen; format: cell-based; details: Homo sapiens; Non-Small Cell Lung Cancer HOP-62; single dose 10^−5 M
SK-MEL-5 = test: NCI single-dose growth inhibition screen; format: cell-based, human; details: Homo sapiens, SK-MEL-5, Melanoma SK-MEL-5; single dose 10^−5 M
MALME-3 M = test: NCI single-dose growth inhibition screen; format: cell-based; details: Homo sapiens; Melanoma MALME-3 M; single dose 10^−5 M
SF-268 = test: NCI single-dose growth inhibition screen; format: cell-based; details: Homo sapiens; CNS Cancer SF-268; single dose 10^−5 M
HOP-92 = test: NCI single-dose growth inhibition screen; format: cell-based; details: Homo sapiens; Non-Small Cell Lung Cancer HOP-92; single dose 10^−5 M
[2] = tested on: K. pneumoniae ATCC 10,031; test: Antibacterial screening, agar cup diffusion method; format: cell-based; details: read-out: Minimum inhibitory concentrations (MIC, µM) K. pneumoniae ATCC 10,031
[3] = Escherichia coli, ATCC25, Gram –ve strain
[4] = Klebsiella pneumoniae, ATCC10, Gram –ve strain

Row | SMILES | inhibition at 10 µM (HS 578T) | inhibition at 10 µM (OVCAR-8) | inhibition at 10 µM (NCI-H322M) | inhibition at 10 µM (NCI-H460) | inhibition at 10 µM (EKVX) | inhibition at 10 µM (CAKI-1) | inhibition at 10 µM (A549/ATCC) | inhibition at 10 µM (DU-145) | inhibition at 10 µM (LOX IMVI) | inhibition at 10 µM (PC-3) | inhibition at 10 µM (UACC-257) | MIC (E. coli ATCC 25,922; [3]) | inhibition at 10 µM (SR) | inhibition at 10 µM (NCI-H23) | inhibition at 10 µM (ACHN) | MIC (S. aureus ATCC 6538) | inhibition at 10 µM (MDA-MB231) | inhibition at 10 µM (786-0) | melting point | inhibition at 10 µM (SN12C) | also measured
1 | O=C(O)c1cn(C2CC2)c2cc(N3CCN(C(=O)CCCN4C(=O)S/C(=C\c5ccc(Cl)cc5)C4=O)CC3)c(F)cc2c1=O [3 h] | < 0% | 5.3% | 11.8% | 0% | 2.1% | 4.4% | 3.4% | < 0% | 38.2% | < 0% | 5.1% | 0.04 µM (≈ 0.0256 µg/mL) | 10.7% | 5.3% | 0.7% | > 20 µM | 13.7% | 11.3% | 273 °C | 0.4% | inhibition at 10 µM (RPMI-8226): < 0%; inhibition at 10 µM (MOLT-4): < 0%; inhibition at 10 µM (OVCAR-4): 5.1%; inhibition at 10 µM (CCRF-CEM): < 0%; inhibition at 10 µM (A498): 7.7%; MIC [1]: > 20 µM; inhibition at 10 µM (HOP-62): 2.9%; inhibition at 10 µM (SK-MEL-5): 1.1%; inhibition at 10 µM (MALME-3 M): 10.9%; inhibition at 10 µM (SF-268): 2.3%; inhibition at 10 µM (HOP-92): 9.7%
2 | COc1cc(/C=C2\SC(=O)N(CCCC(=O)N3CCN(c4cc5c(cc4F)c(=O)c(C(=O)O)cn5C4CC4)CC3)C2=O)cc(OC)c1OC [3 g] | 3.2% | 1.9% | 5.1% | < 0% | < 0% | 2.2% | 3.5% | < 0% | 1.8% | < 0% | 6.7% | 0.25 µM (≈ 0.174 µg/mL) | 5.4% | 2.6% | < 0% | > 20 µM | < 0% | < 0% | 252 °C | 0.6% | MIC ([2]; Gram –ve strain): 0.25 µM (≈ 0.174 µg/mL); MIC [2, 4]: 0.13 to 0.8 µM (≈ 0.0903 to 0.556 µg/mL); inhibition at 10 µM (RPMI-8226): < 0%; inhibition at 10 µM (MOLT-4): < 0%; inhibition at 10 µM (OVCAR-4): < 0%; inhibition at 10 µM (CCRF-CEM): < 0%; inhibition at 10 µM (A498): 2.3%; MIC [1]: > 20 µM; inhibition at 10 µM (HOP-62): < 0%; inhibition at 10 µM (SK-MEL-5): < 0%; inhibition at 10 µM (MALME-3 M): < 0%; inhibition at 10 µM (SF-268): 4.4%; inhibition at 10 µM (HOP-92): < 0%
3 | O=C(O)c1cn(C2CC2)c2cc(N3CCN(C(=O)CCCN4C(=O)SC(=Cc5cccc([N+](=O)[O-])c5)C4=O)CC3)c(F)cc2c1=O [3d, 1-cyclopropyl-6-fluoro-7-[4-[4-[5-[(3-nitrophenyl)methylene]-2,4-dioxo-thiazolidin-3-yl]butanoyl]piperazin-1-yl]-4-oxoquinoline-3-carboxylic acid] | 8.2% | 3.1% | 6.8% | < 0% | 2.3% | 5% | 7.8% | < 0% | 26.5% | < 0% | 8.1% | 0.2 µM (≈ 0.13 µg/mL) | < 0% | 7.9% | 4.2% | > 20 µM | 8% | 8.5% | 263 °C | 3.7% | MIC ([2]; Gram –ve strain): 0.13 µM (≈ 0.0845 µg/mL); MIC [2, 4]: 0.13 to 0.8 µM (≈ 0.0845 to 0.52 µg/mL); inhibition at 10 µM (RPMI-8226): < 0%; inhibition at 10 µM (MOLT-4): < 0%; inhibition at 10 µM (OVCAR-4): 2.6%; inhibition at 10 µM (CCRF-CEM): < 0%; inhibition at 10 µM (A498): 8.9%; MIC [1]: 0.87 µM (≈ 0.565 µg/mL); inhibition at 10 µM (HOP-62): 5.2%; inhibition at 10 µM (SK-MEL-5): 2.3%; inhibition at 10 µM (MALME-3 M): 9.8%; inhibition at 10 µM (SF-268): 2.4%; inhibition at 10 µM (HOP-92): < 0%
4 | COc1ccc(/C=C2\SC(=O)N(CCCC(=O)N3CCN(c4cc5c(cc4F)c(=O)c(C(=O)O)cn5C4CC4)CC3)C2=O)cc1OC [3f] | 1.2% | 2.9% | 4.2% | < 0% | 10.6% | 1.7% | 1.3% | < 0% | 2.4% | < 0% | 12.3% | 1.94 to 2.6 µM (≈ 1.29 to 1.73 µg/mL) | 19.5% | < 0% | < 0% | > 20 µM | 0.1% | 2.4% | 241 °C | 0.8% | MIC (E. coli ATCC 25,922; Gram –ve strain): 2.23 µM (≈ 1.48 µg/mL); MIC [2, 4]: > 20 µM; inhibition at 10 µM (RPMI-8226): < 0%; inhibition at 10 µM (MOLT-4): 7.2%; inhibition at 10 µM (OVCAR-4): < 0%; inhibition at 10 µM (CCRF-CEM): < 0%; inhibition at 10 µM (A498): 15.5%; MIC [1]: > 20 µM; inhibition at 10 µM (HOP-62): < 0%; inhibition at 10 µM (SK-MEL-5): 1.9%; inhibition at 10 µM (MALME-3 M): 5.9%; inhibition at 10 µM (SF-268): < 0%; inhibition at 10 µM (HOP-92): 0.8%
5 | Cc1ccc(/C=C2\SC(=O)N(CCCC(=O)N3CCN(c4cc5c(cc4F)c(=O)c(C(=O)O)cn5C4CC4)CC3)C2=O)cc1 [3c] | < 0% | < 0% | < 0% | < 0% | 2.4% | 1.5% | < 0% | < 0% | 3.5% | 1.1% | < 0% | 0.48 µM (≈ 0.297 µg/mL) | < 0% | 1.8% | 2.3% | > 20 µM | < 0% | 0.9% | 233 to 234 °C | < 0% | inhibition at 10 µM (MOLT-4): < 0%; inhibition at 10 µM (OVCAR-4): < 0%; inhibition at 10 µM (CCRF-CEM): 2.9%; inhibition at 10 µM (A498): 5.3%; MIC [1]: > 20 µM; inhibition at 10 µM (HOP-62): < 0%; inhibition at 10 µM (SK-MEL-5): 3.8%; inhibition at 10 µM (MALME-3 M): < 0%; inhibition at 10 µM (SF-268): 3.7%; inhibition at 10 µM (HOP-92): < 0%
